From patent US11780830B2, “Triazolone derivatives or salts thereof and pharmaceutical compositions comprising the same” (YUHAN CORPORATION, priority 2018, dated 2023)
Counter-ions that a name gives are not always drawn.

What was measured:
Assay type in all cases: biochemical
[1] = target: T1, recombinant human MAO-A (monoamine oxidase-A) (Homo sapiens, UniProt P21397); test: Activity on recombinant human MAO-A, method similar to the VAP-1 assay; details: substrate 0.5 mM tyramine; read-out: Inhibitory Activity (IC50, nM) MAO-A
T1 construct: purchased Sigma-Aldrich
T1 sequence (P21397 1-527): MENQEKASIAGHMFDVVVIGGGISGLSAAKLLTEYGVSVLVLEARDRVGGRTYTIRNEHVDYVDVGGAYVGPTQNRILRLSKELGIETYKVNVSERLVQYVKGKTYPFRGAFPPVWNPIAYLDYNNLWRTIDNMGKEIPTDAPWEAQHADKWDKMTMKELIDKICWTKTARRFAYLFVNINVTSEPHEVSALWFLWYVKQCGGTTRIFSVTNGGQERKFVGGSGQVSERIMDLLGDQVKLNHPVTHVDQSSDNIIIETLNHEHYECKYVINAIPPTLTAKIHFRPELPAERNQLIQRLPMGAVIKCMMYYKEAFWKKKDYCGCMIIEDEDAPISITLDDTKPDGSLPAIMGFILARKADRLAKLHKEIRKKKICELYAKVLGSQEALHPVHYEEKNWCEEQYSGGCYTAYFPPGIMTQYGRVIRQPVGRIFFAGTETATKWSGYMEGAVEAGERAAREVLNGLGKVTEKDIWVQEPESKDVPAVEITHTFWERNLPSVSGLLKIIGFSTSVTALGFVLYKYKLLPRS
Method in brief: (§1)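 Enzyme preincubated with compound 30 min at 37 °C in 50 mM sodium phosphate pH 7.4, final DMSO below 1%. Substrate was 0.5 mM tyramine for MAO-A and 1 mM benzylamine for MAO-B, with 200 uM Amplex Red and 1 U/mL HRP. H2O2-coupled resorufin fluorescence (ex 544/em 590) followed over 1–2 h; 8-point 4-parameter IC50.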

[2] = target: T2, recombinant human DAO (diamine oxidase) (Homo sapiens, UniProt P19801); test: Activity on recombinant human DAO, method similar to the VAP-1 assay; details: substrate 1 mM putrescine; read-out: Inhibitory Activity (IC50, nM) DAO
T2 construct: purchased R&D systems
T2 sequence (P19801 20-751): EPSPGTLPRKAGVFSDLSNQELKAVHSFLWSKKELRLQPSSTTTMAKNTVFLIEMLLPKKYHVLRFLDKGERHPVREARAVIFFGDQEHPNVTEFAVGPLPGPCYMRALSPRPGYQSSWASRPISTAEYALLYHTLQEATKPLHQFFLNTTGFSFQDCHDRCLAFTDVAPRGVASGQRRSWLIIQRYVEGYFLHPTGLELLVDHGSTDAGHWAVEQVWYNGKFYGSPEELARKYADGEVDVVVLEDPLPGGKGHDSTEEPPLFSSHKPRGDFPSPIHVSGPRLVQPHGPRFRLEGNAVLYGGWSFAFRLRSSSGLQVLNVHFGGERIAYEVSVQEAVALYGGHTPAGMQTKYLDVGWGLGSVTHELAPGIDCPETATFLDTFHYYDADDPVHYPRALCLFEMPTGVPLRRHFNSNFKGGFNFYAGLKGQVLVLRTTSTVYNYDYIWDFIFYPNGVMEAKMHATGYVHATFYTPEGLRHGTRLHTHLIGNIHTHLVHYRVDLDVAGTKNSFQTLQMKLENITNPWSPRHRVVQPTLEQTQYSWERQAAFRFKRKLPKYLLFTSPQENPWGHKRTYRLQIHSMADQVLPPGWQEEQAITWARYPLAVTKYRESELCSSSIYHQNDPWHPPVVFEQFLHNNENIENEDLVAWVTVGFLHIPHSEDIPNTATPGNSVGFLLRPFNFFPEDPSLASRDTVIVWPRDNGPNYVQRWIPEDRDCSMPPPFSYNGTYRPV
Method in brief: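 Inhibition of recombinant human diamine oxidase (DAO, R&D systems) was assessed by the same approach as the VAP-1 assay, using 1 mM putrescine as substrate. Hydrogen peroxide formed was detected through an HRP-coupled Amplex Red reaction yielding fluorescent resorufin, read at 544 nm excitation and 590 nm emission. IC50 values came from four-parameter logistic fitting in GraphPad Prism.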

[3] = target: T3, recombinant human MAO-B (monoamine oxidase-B) (Homo sapiens, UniProt P27338); test: Activity on recombinant human MAO-B, method similar to the VAP-1 assay; details: substrate 1 mM benzylamine; read-out: Inhibitory Activity (IC50, nM) MAO-B
T3 construct: purchased Sigma-Aldrich
T3 sequence (P27338 1-520): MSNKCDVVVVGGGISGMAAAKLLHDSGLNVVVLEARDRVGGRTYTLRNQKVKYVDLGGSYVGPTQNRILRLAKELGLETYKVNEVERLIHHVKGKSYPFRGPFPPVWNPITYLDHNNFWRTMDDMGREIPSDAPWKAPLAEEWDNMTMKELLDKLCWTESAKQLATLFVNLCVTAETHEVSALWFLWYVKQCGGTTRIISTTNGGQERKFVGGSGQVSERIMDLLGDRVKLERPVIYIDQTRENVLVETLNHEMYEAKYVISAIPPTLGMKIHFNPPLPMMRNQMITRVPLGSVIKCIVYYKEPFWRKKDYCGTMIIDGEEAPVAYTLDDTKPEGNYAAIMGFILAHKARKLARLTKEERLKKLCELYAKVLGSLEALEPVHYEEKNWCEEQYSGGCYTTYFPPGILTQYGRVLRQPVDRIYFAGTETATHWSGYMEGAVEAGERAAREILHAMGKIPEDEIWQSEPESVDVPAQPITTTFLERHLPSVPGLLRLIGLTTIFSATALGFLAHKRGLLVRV
Method in brief: as §1

recombinant human VAP-1 = target: T4, recombinant human VAP-1 (Homo sapiens, UniProt Q16853); test: Activity on recombinant human VAP-1, HRP-coupled Amplex Red hydrogen peroxide assay; details: substrate 1 mM benzylamine; compound incubated with enzyme at 37° C. for 30 minutes; pH 7.4; read-out: Inhibitory Activity (IC50, nM) human VAP-1
T4 construct: purchased R&D systems
T4 sequence (Q16853 1-763): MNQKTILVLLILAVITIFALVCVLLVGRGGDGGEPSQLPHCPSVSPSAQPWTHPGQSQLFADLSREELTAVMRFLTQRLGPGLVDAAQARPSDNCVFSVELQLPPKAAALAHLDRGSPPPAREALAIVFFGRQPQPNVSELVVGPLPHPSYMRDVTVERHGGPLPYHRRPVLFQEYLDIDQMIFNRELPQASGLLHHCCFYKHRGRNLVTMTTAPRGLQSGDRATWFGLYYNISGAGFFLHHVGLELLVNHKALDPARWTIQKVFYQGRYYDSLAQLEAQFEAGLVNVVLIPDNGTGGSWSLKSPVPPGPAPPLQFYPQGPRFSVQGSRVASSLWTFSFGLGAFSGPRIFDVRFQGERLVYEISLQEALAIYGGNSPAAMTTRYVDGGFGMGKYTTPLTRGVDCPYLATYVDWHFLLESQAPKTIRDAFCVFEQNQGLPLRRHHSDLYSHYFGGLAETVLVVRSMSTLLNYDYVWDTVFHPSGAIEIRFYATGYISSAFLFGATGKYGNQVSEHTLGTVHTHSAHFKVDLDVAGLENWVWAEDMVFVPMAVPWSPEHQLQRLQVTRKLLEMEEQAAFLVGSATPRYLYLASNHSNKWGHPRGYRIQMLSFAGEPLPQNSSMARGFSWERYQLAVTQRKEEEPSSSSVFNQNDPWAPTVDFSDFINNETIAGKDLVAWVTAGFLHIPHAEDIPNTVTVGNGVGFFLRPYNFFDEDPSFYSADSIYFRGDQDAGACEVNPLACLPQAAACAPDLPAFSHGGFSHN
Method in brief: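 Enzyme in 50 mM sodium phosphate pH 7.4 preincubated with compound 30 min at 37 °C, then 1 mM benzylamine, 200 µM Amplex Red and 1 U/mL HRP added. H2O2-derived resorufin fluorescence (ex 544/em 590 nm) followed over 1–2 h; signal-rate decrease versus DMSO control, 8-point curve, four-parameter logistic IC50.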

Compound	IC50 [1] [nM]	IC50 [2] [nM]	IC50 [3] [nM]	IC50 (recombinant human VAP-1) [nM]
NC/C(=C/F)Cn1ncn(Cc2ccc(-c3ccc4c(c3)OCO4)s2)c1=O [Example 60, 2-[(2Z)-2-(aminomethyl)-3-fluoroprop-2-en-1-yl]-4-[5-(1,3-benzodioxol-5-yl)thiophen-2-yl]methyl-2,4-dihydro-3H-1,2,4-triazol-3-one hydrochloride]	> 10000	3000	< 100	1.8
NC/C(=C/F)Cn1ncn(Cc2ccc(-c3ccc4nonc4c3)s2)c1=O [Example 61, 2-[(2Z)-2-(aminomethyl)-3-fluoroprop-2-en-1-yl]-4-[5-(2,1,3-benzooxadiazol-5-yl)thiophen-2-yl]methyl-2,4-dihydro-3H-1,2,4-triazol-3-one hydrochloride]	16000	< 100	10.1	1.1
NC/C(=C\F)Cn1ncn(Cc2ccc(-c3ccc4ocnc4c3)s2)c1=O [Example 62, 2-[(2E)-2-(aminomethyl)-3-fluoroprop-2-en-1-yl]-4-[5-(1,3-benzooxazol-5-yl)thiophen-2-yl]methyl-2,4-dihydro-3H-1,2,4-triazol-3-one hydrochloride]	2100	530	310	3.7
NC/C(=C\F)Cn1ncn(Cc2ccc(-c3ccc4[nH]ncc4c3)s2)c1=O [Example 63, 2-[(2E)-2-(aminomethyl)-3-fluoroprop-2-en-1-yl]-4-[5-(1H-indazol-5-yl)thiophen-2-yl]methyl-2,4-dihydro-3H-1,2,4-triazol-3-one hydrochloride]	67000	1200	380	0.9
NC/C(=C\F)Cn1ncn(Cc2ccc(-c3cnc4scnc4c3)s2)c1=O [Example 64, 2-[(2E)-2-(aminomethyl)-3-fluoroprop-2-en-1-yl]-4-[5-([1,3]thiazolo[5,4-b]pyridin-6-yl)thiophen-2-yl]methyl-2,4-dihydro-3H-1,2,4-triazol-3-one hydrochloride]	6700	110	2200	0.7
NC/C(=C\F)Cn1ncn(Cc2ccc(-c3cnc4[nH]ccc4c3)s2)c1=O [Example 65, 2-[(2E)-2-(aminomethyl)-3-fluoroprop-2-en-1-yl]-4-[5-(1H-pyrrolo[2,3-b]pyridin-5-yl)thiophen-2-yl]methyl-2,4-dihydro-3H-1,2,4-triazol-3-one hydrochloride]	> 100000	1500	3400	0.7
NC/C(=C\F)Cn1ncn(Cc2ccc(-c3ccn4ncnc4c3)s2)c1=O [Example 66, 2-[(2E)-2-(aminomethyl)-3-fluoroprop-2-en-1-yl]-4-[5-([1,2,4]triazolo[1,5-a]pyridin-7-yl)thiophen-2-yl]methyl-2,4-dihydro-3H-1,2,4-triazol-3-one hydrochloride]	> 10000	340	1200	0.5

More lines, now with the values ahead:

IC50 [1] [nM]	IC50 [2] [nM]	IC50 [3] [nM]	IC50 (recombinant human VAP-1) [nM]	Compound
> 100000	1200	11000	0.3	NC/C(=C\F)Cn1ncn(Cc2ccc(-c3ccc4c(c3)C(=O)NC4)s2)c1=O [Example 67, 6-[5-(1-[(2E)-2-(aminomethyl)-3-fluoroprop-2-en-1-yl]-5-oxo-1,5-dihydro-4H-1,2,4-triazol-4-ylmethyl)thiophen-2-yl]-2,3-dihydro-1H-isoindol-1-one hydrochloride]
> 100000	1000	1600	0.4	NC/C(=C\F)Cn1ncn(Cc2ccc(-c3ccc4c(c3)CNC4=O)s2)c1=O [Example 68, 5-[5-(1-[(2E)-2-(aminomethyl)-3-fluoroprop-2-en-1-yl]-5-oxo-1,5-dihydro-4H-1,2,4-triazol-4-ylmethyl)thiophen-2-yl]-2,3-dihydro-1H-isoindol-1-one hydrochloride]
70000	1100	1800	0.1	NC/C(=C\F)Cn1ncn(Cc2ccc(-c3ccc4c(c3)CC(=O)N4)s2)c1=O [Example 69, 5-[5-(1-[(2E)-2-(aminomethyl)-3-fluoroprop-2-en-1-yl]-5-oxo-1,5-dihydro-4H-1,2,4-triazol-4-ylmethyl)thiophen-2-yl]-1,3-dihydro-2H-indol-2-one hydrochloride]
> 100000	289	2800	0.1	NC/C(=C\F)Cn1ncn(Cc2ccc(-c3cc(F)c4c(c3)CNC4=O)s2)c1=O [Example 70, hydrochloride]
> 100000	530	> 10000	0.2	NC/C(=C\F)Cn1ncn(Cc2ccc(-c3cc(F)c4c(c3)CC(=O)N4)s2)c1=O [Example 71, 5-[5-[[1-[(E)-2-(aminomethyl)-3-fluoro-allyl]-5-oxo-1,2,4-triazol-4-yl]methyl]-2-thienyl]-7-fluoro-indolin-2-one hydrochloride]
